A short description of series [1]: log P (octanol/water partition coefficient) by HPLC method of Leahy, Taylor and Wait. Format: physicochemical. The settings on record: octanol in conjunction with water. From the text:
Water resistance of compounds of formula I may be evaluated by reference to the partition coefficient of the compounds using a non-polar solvent such as octanol in conjunction with water. The term log P, where P is the partition coefficient, where used herein refers to the log P value determined by the HPLC method of David E Leahy, Peter J Taylor and Alan R Wait, Ouant. Struct.-Act Relat., 8, 17-31 (1989) at pages 23 and 24. Log P may be used to directly compare the lipophilicity of a variety of molecules as described by Hansch, C., and Leo, A. J., Substituent Constants for Correlation Analysis in Chemistry and Biology, John Wiley, New York 1979.
Struct. Act Relat., 8, 17-31 (1989) and the results are recorded in Table 6.

Series [2] in a line: E1%: relative UV absorbance of a 1% w/w solution. The settings on record: relative measure of the UV absorbance of a 1% w/w solution of the compound. The series is classed as physicochemical. An excerpt: This example compares the ultraviolet light absorbing properties and water resistance properties of compounds of the invention.
E1% is a relative measure of the UV absorbance of a 1% w/w solution of the compound.

Each structure is given as a SMILES string.

By chromatographic logP is commonly meant a lipophilicity value derived from retention on a column. Consider `CCC(=O)C1=CN(CC(C)C)CCC1(C)C` [Compound 1, I-(2-Methylpropyl)-3-propionyl-4,4-dimethyl-1,4,5,6-tetrahydropyridine], for which the chromatographic logP in series [1] came out at 3.2. Moreover, the E1% in series [2] is 131.

In turn, `CC(=O)C1=CN(CC(C)C)CCC1(C)C` [Compound 2, I-(2-Methylpropyl) -3-acetyl-4,4-dimethyl-1,4,5,6-tetrahydropyridine] gave a chromatographic logP in series [1] of 2.7. Moreover, the E1% in series [2] came to 140. In the same order, the values of `CCCC(=O)C1=CN(CC(C)C)CCC1(C)C` [Compound 3, 1-(2-Methylpropyl) -3-butyryl-4,4-dimethyl-1,4,5,6-tetrahydropyridine] are 3.7 and 124.

On to `CC(C)CN1C=C(C(=O)C(F)(F)F)C(C)(C)CC1` [Compound 4, 1-(2-Methylpropyl) -3-trifluoroacetyl-4,4-dimethyl-1,4,5,6-tetrahydropyridine], for which, in series [1], the chromatographic logP came out at 3. In series [2], the E1% is given as 112.

In the case of `CCCCCCCC(=O)C1=CN(CC(C)C)CCC1(C)C` [Compound 5, 1-(2-Methylpropyl) -3-octanoyl-4,4-dimethyl-1,4,5,6-tetrahydropyridine], the chromatographic logP in series [1] came out at 5.8. Besides, the E1% in series [2] worked out at 100. As for `CCCCCCCCCCCCCCCCN1C=C(C(=O)CC)C(C)(C)CC1` [Compound 6, 1-Palmityl-3-propionyl-4,4-dimethyl-1,4,5,6-tetrahydropyridine], the chromatographic logP in series [1] stood at 9.4. Also, the E1% in series [2] is given as 75.

In the case of `CCCCCCCC(=O)C1=CN(CC)CCC1(C)C` [Compound 7, 1-Ethyl-3-octanoyl--4,4-dimethyl-1,4,5,6-tetrahydropyridine], the chromatographic logP in series [1] worked out at 4.8. The same compound yielded an E1% in series [2] of 110. In the same order, the values of `CCCCC(CC)CN1C=C(C(=O)CC)C(C)(C)CC1` (centres unmarked) [Compound 8, 1-(2-Ethylhexyl)-3-propionyl-4,4-dimethyl-1,4,5,6-tetrahydropyridine] are 5.3 and 105. The matching figures for `CCCCCCCCCC(=O)C1=CN(CC)CCC1(C)C` [Compound 9, I-Ethyl-3-decanoyl--4,4-dimethyl-1,4,5,6-tetrahydropyridine]: 5.8 and 100. In the same order, the values of `CCCCCCCCCCCCCCCC(=O)C1=CN(CC)CCC1(C)C` [Compound 10, 1-Ethyl-3-palmitoyl--4,4-dimethyl-1,4,5,6-tetrahydropyridine] are 8.9 and 77.

Take `CCCCCCCCCCCCCC(=O)C1=CN(C)CCC1(C)C` [Compound 11, 1-Methyl-3-myristoyl-4,4-dimethyl-1,4,5,6-tetrahydropyridine]: in series [1], the chromatographic logP turned out to be 7.4. Besides, the E1% in series [2] came out at 87. As for `CCCCCCCC(=O)C1=CN(CCCCCCC)CCC1(C)C` [Compound 12, 1-Heptyl-3-octanoyl-4,4-dimethyl--1,4,5,6-tetrahydropyridine], the chromatographic logP in series [1] was determined as 7.4. Also, the E1% in series [2] is 87. In series [1], `CCCCC(CC)COC(=O)CCC(=O)C1=CN(CC)CCC1(C)C` (centres unmarked) [Compound 13, 1-Ethyl-3(2-ethyl-hexylsuccinoyl)--4,4-dimethyl-1,4,5,6-tetrahydropyridine] showed a chromatographic logP of 6.9. Further, the E1% in series [2] is recorded as 87. In turn, `CCCCCCCCCC(=O)C1=CN(CCC)CCC1(C)C` [Compound 14, 1-Propyl-3-decanoyl-4,4-dimethyl-1,4,5,6-tetrahydropyridine] displayed a chromatographic logP in series [1] of 6.3. This compound also returned an E1% in series [2] of 95. For the compound `CCCCCCCCCC(=O)C1=CN(C(C)C)CCC1(C)C` [Compound 15, 1-(-Methylethyl)-3 decanoyl--4,4-dimethyl-1,4,5,6-tetrahydropyridine], the chromatographic logP in series [1] is 6.3. On to `CCCCCCCCCC(=O)C1=CN(CC(C)C)CCC1(C)C` [Compound 16, 1-(2-Methylpropyl) -3-decanoyl--4,4-dimethyl-1,4,5,6-tetrahydropyridine], for which, in series [1], the chromatographic logP was found to be 6.9. In series [2], this compound showed an E1% of 91.

On to `CCCCCCCCCCCC(=O)C1=CN(C)CCC1(C)C` [Compound 17, 1-Methyl-3-lauroyl--4,4-dimethyl 4,5,6-tetrahydropyridine], for which the chromatographic logP in series [1] worked out at 6.3. In series [2], this compound returned an E1% of 95. The matching figures for `CCCCCCCCCCN1C=C(C(=O)CC)C(C)(C)CC1` [Compound 18, 1-Decyl-3-propionyl--4,4-dimethyl-1,4,5,6-tetrahydropyridine]: 6.3 and 95. `CCCCCCCC(=O)C1=CN(C2CCCCC2)CCC1(C)C` [Compound 19, 1-Cyclohexyl-3-octanoyl-4,4-dimethyl-1,4,5,6-tetrahydropyridine]: in series [1], the chromatographic logP came out at 6.9. The E1% in series [2] came out at 91. Take `CCCCCCCCCC(=O)C1=CN(C(C)(C)C)CCC1(C)C` [Compound 20, 1-(1,1-Dimethyl-ethyl)-3-decanoyl--4,4-dimethyl-1,4,5,6-tetrahydropyridine]: the chromatographic logP in series [1] came to 6.9. Moreover, in series [2], the E1% was found to be 91. In turn, `CCCCCCCC(=O)C1=CN(C(C)(C)C)CCC1(C)C` [Compound 21, 1-(1,1-Dimethyl-ethyl)-3-octanoyl-4,4-dimethyl-1,4,5,6-tetrahydropyridine] registered a chromatographic logP in series [1] of 5.8. In series [2], this compound displayed an E1% of 100. The matching figures for `CCCCCC(=O)C1=CN(C(C)(C)C)CCC1(C)C` [Compound 22, 1-(1,1-Dimethyl-ethyl) -3-hexanoyl-4,4-dimethyl-1,4,5,6-tetrahydropyridine]: 4.8 and 110. In the same order, the values of `CCCCCCCC(=O)C1=CN(C(C)C)CCC1(C)C` [Compound 23, 1-(1-Methylethyl)-3-octanoyl-4,4-dimethyl-1,4,5,6-tetrahydropyridine] are 5.3 and 105. Regarding `CC(C)CN1C=C(C(=O)CCCCC(=O)C2=CN(CC(C)C)CCC2(C)C)C(C)(C)CC1` [Compound 24], in series [1], the chromatographic logP was determined as 9.4. Further, in series [2], the E1% is reported as 131.

The values are drawn from patent publication EP0462123B1, “UV-ABSORBING COMPOUNDS AND COMPOSITIONS” (AUSTRALIAN INSTITUTE OF MARINE SCIENCE, priority 1989, dated 1990).
